The NIST ThermoML archive (doi:10.1021/acs.jced.7b00564)

Assay: xn = mol fraction of the nth substance listed
Conditions: Gas, isochoric method

C=C(F)C(F)(F)F [2,3,3,3-tetrafluoro-1-propene] + CC(C)C
Conditions | specific volume [m3/kg]
303.15 K, 163.5 kPa, x2 = 0.472 | 0.1698
303.15 K, 180.2 kPa, x2 = 0.606 | 0.1663
303.15 K, 246.7 kPa, x2 = 0.234 | 0.0939
303.15 K, 260.6 kPa, x2 = 0.772 | 0.1279
303.15 K, 269.3 kPa, x2 = 0.4 | 0.0942
308.15 K, 166.4 kPa, x2 = 0.472 | 0.1699
308.15 K, 183.3 kPa, x2 = 0.606 | 0.1664
308.15 K, 251.2 kPa, x2 = 0.234 | 0.094
308.15 K, 265.4 kPa, x2 = 0.772 | 0.1279
308.15 K, 274.3 kPa, x2 = 0.4 | 0.0942
308.15 K, 426.8 kPa, x2 = 0.85 | 0.0797
313.15 K, 169.2 kPa, x2 = 0.472 | 0.1699
313.15 K, 186.5 kPa, x2 = 0.606 | 0.1664
313.15 K, 255.6 kPa, x2 = 0.234 | 0.094
313.15 K, 270.2 kPa, x2 = 0.772 | 0.1279
313.15 K, 279.2 kPa, x2 = 0.4 | 0.0943
313.15 K, 435.6 kPa, x2 = 0.85 | 0.0797
318.15 K, 172.1 kPa, x2 = 0.472 | 0.17
318.15 K, 189.7 kPa, x2 = 0.606 | 0.1665
318.15 K, 260.1 kPa, x2 = 0.234 | 0.094
318.15 K, 275.1 kPa, x2 = 0.772 | 0.1279
318.15 K, 284.2 kPa, x2 = 0.4 | 0.0943
318.15 K, 444.2 kPa, x2 = 0.85 | 0.0797
323.15 K, 174.7 kPa, x2 = 0.472 | 0.17
323.15 K, 192.9 kPa, x2 = 0.606 | 0.1665
323.15 K, 264.6 kPa, x2 = 0.234 | 0.094
323.15 K, 279.9 kPa, x2 = 0.772 | 0.128
323.15 K, 289.2 kPa, x2 = 0.4 | 0.0943
323.15 K, 452.8 kPa, x2 = 0.85 | 0.0797
328.15 K, 177.5 kPa, x2 = 0.472 | 0.17
328.15 K, 196 kPa, x2 = 0.606 | 0.1665
328.15 K, 269 kPa, x2 = 0.234 | 0.094
328.15 K, 284.6 kPa, x2 = 0.772 | 0.128
328.15 K, 294.1 kPa, x2 = 0.4 | 0.0943
328.15 K, 461.2 kPa, x2 = 0.85 | 0.0797
333.15 K, 180.3 kPa, x2 = 0.472 | 0.1701
333.15 K, 199.2 kPa, x2 = 0.606 | 0.1666
333.15 K, 273.4 kPa, x2 = 0.234 | 0.0941
333.15 K, 289.4 kPa, x2 = 0.772 | 0.128
333.15 K, 299 kPa, x2 = 0.4 | 0.0944
333.15 K, 469.7 kPa, x2 = 0.85 | 0.0798
338.15 K, 183.1 kPa, x2 = 0.472 | 0.1701
338.15 K, 202.3 kPa, x2 = 0.606 | 0.1666
338.15 K, 277.8 kPa, x2 = 0.234 | 0.0941
338.15 K, 294.2 kPa, x2 = 0.772 | 0.1281
338.15 K, 303.9 kPa, x2 = 0.4 | 0.0944
338.15 K, 477.9 kPa, x2 = 0.85 | 0.0798
343.15 K, 185.9 kPa, x2 = 0.472 | 0.1701
343.15 K, 205.5 kPa, x2 = 0.606 | 0.1666
343.15 K, 282.2 kPa, x2 = 0.234 | 0.0941
343.15 K, 298.9 kPa, x2 = 0.772 | 0.1281
343.15 K, 308.8 kPa, x2 = 0.4 | 0.0944
343.15 K, 486.3 kPa, x2 = 0.85 | 0.0798
348.15 K, 188.7 kPa, x2 = 0.472 | 0.1702
348.15 K, 208.6 kPa, x2 = 0.606 | 0.1667
348.15 K, 286.6 kPa, x2 = 0.234 | 0.0941
348.15 K, 303.6 kPa, x2 = 0.772 | 0.1281
348.15 K, 313.5 kPa, x2 = 0.4 | 0.0944
348.15 K, 494.6 kPa, x2 = 0.85 | 0.0798
353.15 K, 191.5 kPa, x2 = 0.472 | 0.1702
353.15 K, 211.8 kPa, x2 = 0.606 | 0.1667
353.15 K, 291 kPa, x2 = 0.234 | 0.0941
353.15 K, 308.1 kPa, x2 = 0.772 | 0.1281
353.15 K, 318.3 kPa, x2 = 0.4 | 0.0944
353.15 K, 502.9 kPa, x2 = 0.85 | 0.0798
358.15 K, 194.3 kPa, x2 = 0.472 | 0.1703
358.15 K, 214.9 kPa, x2 = 0.606 | 0.1667
358.15 K, 295.4 kPa, x2 = 0.234 | 0.0942
358.15 K, 312.6 kPa, x2 = 0.772 | 0.1282
358.15 K, 323.2 kPa, x2 = 0.4 | 0.0945
358.15 K, 511.2 kPa, x2 = 0.85 | 0.0798
363.15 K, 197.1 kPa, x2 = 0.472 | 0.1703
363.15 K, 218 kPa, x2 = 0.606 | 0.1668
363.15 K, 299.8 kPa, x2 = 0.234 | 0.0942
363.15 K, 328.1 kPa, x2 = 0.4 | 0.0945
363.15 K, 519.5 kPa, x2 = 0.85 | 0.0799
368.15 K, 200.1 kPa, x2 = 0.472 | 0.1703
368.15 K, 221.1 kPa, x2 = 0.606 | 0.1668
368.15 K, 304.1 kPa, x2 = 0.234 | 0.0942
368.15 K, 332.9 kPa, x2 = 0.4 | 0.0945
368.15 K, 527.7 kPa, x2 = 0.85 | 0.0799
373.15 K, 202.9 kPa, x2 = 0.472 | 0.1704
373.15 K, 224.3 kPa, x2 = 0.606 | 0.1669
373.15 K, 308.5 kPa, x2 = 0.234 | 0.0942
373.15 K, 337.7 kPa, x2 = 0.4 | 0.0945
373.15 K, 535.9 kPa, x2 = 0.85 | 0.0799
378.15 K, 205.7 kPa, x2 = 0.472 | 0.1704
378.15 K, 227.5 kPa, x2 = 0.606 | 0.1669
378.15 K, 313 kPa, x2 = 0.234 | 0.0942
378.15 K, 342.6 kPa, x2 = 0.4 | 0.0945
378.15 K, 544.1 kPa, x2 = 0.85 | 0.0799
383.15 K, 208.5 kPa, x2 = 0.472 | 0.1704
383.15 K, 230.6 kPa, x2 = 0.606 | 0.1669
383.15 K, 317.4 kPa, x2 = 0.234 | 0.0943
383.15 K, 347.4 kPa, x2 = 0.4 | 0.0946
383.15 K, 552.4 kPa, x2 = 0.85 | 0.0799
